Experimental data from patent publication US8268751B2, “Combination of active substances with insecticidal properties” (Bayer Cropscience AG, priority 2003, dated 2012).

Assays:
Format in all cases: in vivo
Spodoptera frugiperda = Spodoptera frugiperda test (cabbage leaf dip); settings: Table D, 0.032 ppm
Source text: (§1) The expected action for a given combination of two active compounds can be calculated as follows, according to S. R. Colby, Weeds 15 (1967), 20-22:
(§2) If • X is the kill rate, expressed as a percentage of the untreated control, when employing active compound A at an application rate of m g/ha or in a concentration of m ppm, • Y is the kill rate, expressed as a percentage of the untreated control, when employing active compound B at an application rate of n g/ha or in a concentration of n ppm and • E is the kill rate, expressed as a percentage of the untreated control, when employing active compounds A and B at application rates of m and n g/ha or in a concentration of m and n ppm, then
(§3) If the actual insecticidal kill rate exceeds the calculated value, the action of the combination is superadditive, i.e. a synergistic effect is present. In this case, the actually observed kill rate must exceed the value calculated using the above formula for the expected kill rate (E).
Spodoptera frugiperda Test […]
After the desired period of time, the kill in % is determined: 100% means that all caterpillars have been killed; 0% means that none of the caterpillars have been killed. The kill rates determined are calculated using Colby's formula (see page 39).

[1] = test system: Phaedon cochleariae larvae; assay: Phaedon cochleariae larvae test (cabbage leaf dip); settings: Table B, 0.16 ppm
Source text: as §1, §2, §3
Phaedon cochleariae Larvae Test
To produce a suitable preparation of active compound, 1 part by weight of active compound is mixed with the stated amounts of solvent and emulsifier, and the concentrate is diluted with emulsifier-containing water to the desired concentration. […]
After the desired period of time, the kill in % is determined. […] The kill rates determined are calculated using Colby's formula (see page 39).

[2] = test system: Plutella xylostella, resistant strain; assay: Plutella-xylostella test (resistant strain), cabbage leaf dip
Source text: as §1, §2, §3
Plutella-xylostella Test (Resistant Strain)
(§4) To produce a suitable preparation of active compound, 1 part by weight of active compound is mixed with the stated amounts of solvent and emulsifier, and the concentrate is diluted with emulsifier-containing water to the desired concentration.
Cabbage leaves (Brassica oleracea) are treated by being dipped into the preparation of active compound of the desired concentration and are populated with caterpillars of the diamond back moth (Plutella xylostella, resistant strain), while the leaves are still moist.
After the desired period of time, the kill in % is determined. 100% means that all caterpillars have been killed; 0% means that none of the caterpillars have been killed. The kill rates determined are calculated using Colby's formula (see page 39).

Myzus persicae = Myzus persicae test (cabbage leaf dip)
Source text: as §1, §2, §3, §4
Cabbage leaves (Brassica oleracea) which are heavily infested by the green peach aphid (Myzus persicae) are treated by being dipped into the preparation of active compound of the desired concentration.
After the desired period of time, the kill in % is determined. 100% means that all aphids have been killed; 0% means that none of the aphids have been killed. The kill rates determined are calculated using Colby's formula (see page 39).

Q: CC1(C)C(C=C(Cl)Cl)C1C(=O)OC(C#N)c1ccc(F)c(Oc2ccccc2)c1 (stereo not drawn) [(2-3) betacyfluthrin, betacyfluthrin] was tested. Which “Kill rate in % after 6 d, found” value (Spodoptera frugiperda) did it give?
A: 0%

Q: What about the “Kill rate in % after 3 d, found” value [1] of the same compound?
A: 15%

Q: And the “Kill rate in % after 6 d, found” value ([2]; Table C1, 0.0064 ppm)?
A: 0%

Q: For CC1(C)C(C=C(Br)Br)C1C(=O)OC(C#N)c1cccc(Oc2ccccc2)c1 (stereo not drawn) [(2-6) deltamethrin, deltamethrin], which “Kill rate in % after 6 d, found” value (Myzus persicae; Table A1, 0.16 ppm) is on record?
A: 50%

Q: CC1(C)C(/C=C(\Cl)C(F)(F)F)C1C(=O)OC(C#N)c1cccc(Oc2ccccc2)c1 (stereo not drawn) [(2-12) lambda-cyhalothrin, lambda-cyhalothrin] was tested. Which “Kill rate in % after 6 d, found” value (Myzus persicae; Table A2, 0.032 ppm) did it give?
A: 0%

Q: And the “Kill rate in % after 6 d, found” value ([2]; Table C2, 0.0064 ppm)?
A: 0%

Q: How did the “Kill rate in % after 6 d, found” value (Myzus persicae; Table A1, 4 ppm) turn out when Cc1cc(Cl)cc(C(=O)NC(C)C)c1NC(=O)c1cc(C(F)(F)F)nn1-c1ncccc1Cl [Example I-1-9] was run?
A: 15%

Q: And the “Kill rate in % after 6 d, found” value (Myzus persicae; Table A2, 0.8 ppm)?
A: 0%

Q: What about the “Kill rate in % after 6 d, found” value (Spodoptera frugiperda) of the same compound?
A: 75%

Q: And the “Kill rate in % after 3 d, found” value [1]?
A: 0%

Q: What about the “Kill rate in % after 6 d, found” value ([2]; Table C1, 0.0064 ppm) of the same compound?
A: 0%

Q: What about the “Kill rate in % after 6 d, found” value ([2]; Table C2, 0.0064 ppm) of the same compound?
A: 10%
